A short description of series [1]: Human plasma for testing was obtained from a healthy donor. As to conditions: 37 ± 1 °C, up to 96 h.
Another series concerns the target T1, μ-opioid receptor (μOR) (Rattus norvegicus, UniProt P33535).
T1 construct: from tissue; host or cells: rat brain homogenate (membrane fractions)
In words: competitive radioligand displacement assay, μOR, [3H]DAMGO, rat brain homogenate membranes. Format: binding. As to conditions: for decrease in μOR affinity compared to the parent TAPP: ratio of IC50 versus TAPP. The procedure: (§1) The determinations were performed by a competitive radioligand displacement assay with selective radioligands.
(§2) Membrane fractions of rat brain Homogenate were incubated at 25 °C for 60 mins in the presence of radioligands (0.5 nM) specific for each receptor (μOR: [^3H]DAMGO and δOR: [^3H]DELT II, obtained as a generous gift from Prof. Géza Tóth) and the increasing concentrations of the tested compounds (10^−11 up to 10^−5 M, each concentration in duplicate). For measuring non-specific binding, 10 μM naloxone was used as the competitor. The assay buffer contained 50mM Tris-HCl (pH 7.4), bovine serum albumin (0.1 mg/mL), bacitracin (30 μg/mL), bestatin (30 μM), captopril (10 μM), and phenylmethylsulfonyl fluoride (0.1 mM) in the total reaction volume of 1 mL. After the incubation, the binding reactions were terminated by rapid filtration with M-24 Cell Harvester (Brandel/USA) through GF/B Whatman glass fibre strips. The filters were pre-soaked with 0.5% PEI before harvesting in order to minimize non-specific binding. Filter discs were placed separately in 24-well plates and immersed with the Optiphase Supermix scintillation cocktail (Perkin Elmer, Waltham, MA, USA). Radioactivity was measured using a MicroBeta LS Trilux scintillation counter (PerkinElmer, Waltham, MA, USA).

For the next series, the target named is T2, δ-opioid receptor (δOR) (Rattus norvegicus, UniProt P33533).
T2 construct: from tissue; host or cells: rat brain homogenate (membrane fractions)
T2 sequence (P33533 whole entry): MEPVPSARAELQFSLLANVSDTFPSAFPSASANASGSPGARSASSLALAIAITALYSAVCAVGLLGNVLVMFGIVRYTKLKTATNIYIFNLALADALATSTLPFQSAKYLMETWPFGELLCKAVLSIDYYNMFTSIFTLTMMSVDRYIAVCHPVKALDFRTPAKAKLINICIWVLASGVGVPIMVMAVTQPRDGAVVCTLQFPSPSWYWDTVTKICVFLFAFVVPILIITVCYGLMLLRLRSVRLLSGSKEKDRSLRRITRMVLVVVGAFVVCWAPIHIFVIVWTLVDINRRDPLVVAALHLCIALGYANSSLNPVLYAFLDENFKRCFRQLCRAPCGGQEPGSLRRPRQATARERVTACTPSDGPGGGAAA
In words: competitive radioligand displacement assay, δOR, [3H]DELT II, rat brain homogenate membranes. Format: binding. The conditions noted are these: for δOR affinity in words: [3H]DELT II displacement, compared to parent TAPP. The procedure:
as §1, §2
(In general: Displacement assays read how much labelled ligand stays bound in the presence of the test substance.)

The nature of series [2]: stability against proteolysis in human plasma by HPLC/MS. Type of series: in vitro ADME. As to conditions: for half-life at […] / half-life: read-out: half-life time (T1/2) in human plasma (converted); for site of the first proteolytic cleavage: HPLC/MS; for stability in human plasma in words: up to 96 h, compared to TAPP; for remaining at 96 h, 350 µM: read-out: C96h, percent of the initial peptide concentration remaining after 96 h. The procedure: The results are graphically presented in Figure 7 and the representative HPLC chromatograms are given in Figures SM-STAB-1 to SM-STAB-22 in Supplementary Materials. […] After 96 h, more than 90% of the initial peptide concentration (C96h > 90%) remained in the test sample. This is in marked contrast to endomorphin-2 (Tyr-Pro-Phe-Phe-NH2) that, in the very same conditions, is rapidly degraded with half-life time (T1/2) of only 30 min.
The determination of plasma stability was performed according to a previously described protocol with minor modifications. Human plasma for testing was obtained from a healthy donor. […] Portions of the plasma (100 μL) were dispensed into Eppendorf tubes and equilibrated at 37 ± 1 °C for 5 min, before adding 100 μL of the stock solution of each tested peptide. Samples of the test solution were taken and analyzed at several time points (0, 1, 2, 3, 4, 5, 6, 12, 24, 48, and 96 h of the experiment).
In order to precipitate the plasma proteins, 400 μL ethanol (98%) was added to the samples, whereafter shaking (1 min) and cooling in 4 °C (5 min) followed. Subsequently, the samples were centrifuged for 10 min at 2000 g. The supernatant (20 μL) was immediately analyzed by HPLC/MS using the LCMS-2010EV Shimadzu apparatus with a Phenomenex Jupiter 4u Proteo 90A, C12 (25 cm × 2 mm × 4 μm) column. The chromatography was performed in reversed-phase system (solvents A: 0.05% FA in water, B: 0.05% FA in acetonitrile) with a non-linear gradient was used (1–31% B in 20 min followed by an increase to 97% B from 20 to 30 min) at a solvent flow of 0.5 mL/min. The activity of the plasma was confirmed by using endomorphin-2 ([…]) as a control sample. The results of the HPLC/MS analyses allowed for quantitative determination of the concentration changes of the tested peptides. Furthermore, it was possible to indicate the location of the first proteolytic cleavage.

Setting [3] is: radioligand 0.5 nM [3H]DAMGO, rat brain homogenate, mean of three determinations in duplicate, read-out: IC50 ± S.E.M. μOR.
Setting [4] is: radioligand 0.5 nM [3H]DELT II, rat brain homogenate, mean of three determinations in duplicate, read-out: IC50 δOR.

Like-named read-outs stand apart in the source and are kept apart here. Non-standard residues stand in square brackets, D forms with d. Residues, ends and D or L forms follow the SMILES beside them. A value given as a limit tells only on which side of the number the result lay.

Here are results for 23 compounds from paper PMC7288052 (Molecules, 2020).

T1 sequence (P33535 whole entry): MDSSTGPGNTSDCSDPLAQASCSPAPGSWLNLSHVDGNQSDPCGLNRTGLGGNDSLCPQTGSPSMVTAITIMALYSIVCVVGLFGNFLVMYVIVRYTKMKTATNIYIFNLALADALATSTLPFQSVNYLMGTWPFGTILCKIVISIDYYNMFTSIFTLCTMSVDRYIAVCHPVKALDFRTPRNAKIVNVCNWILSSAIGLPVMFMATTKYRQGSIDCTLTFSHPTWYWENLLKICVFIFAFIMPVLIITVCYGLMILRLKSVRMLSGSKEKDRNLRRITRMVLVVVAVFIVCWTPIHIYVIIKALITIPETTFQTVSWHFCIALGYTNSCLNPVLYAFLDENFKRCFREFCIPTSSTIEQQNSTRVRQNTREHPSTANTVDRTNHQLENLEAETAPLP

On to [(R)-β^2h-m-Tyr^1]-TAPP*, for which the cleaved bond entry in series [1] was “Phe4-NH2, first_seen”.
Usually IC50 stands for the concentration that gives 50% inhibition. For `C[C@@H](NC(=O)[C@@H](N)Cc1ccc(O)cc1)C(=O)NC[C@@H](Cc1ccccc1)C(=O)N[C@@H](Cc1ccccc1)C(N)=O` [compound 11, [(R)-β^2hPhe^3]-TAPP], on μ-opioid receptor (μOR), the IC50 stood at 95.4 ± 2.5 nM and the “decrease in μOR affinity compared to the parent TAPP” value was “more than 10 fold”. On δ-opioid receptor (δOR), the IC50 is 794 nM and the “δOR affinity in words” value is “at a level similar to the parent TAPP”. In addition, in series [2] (37 °C), the half-life at […] is approximately 40 h.
Take [(R)-β^2hPhe^4]-TAPP: the cleaved bond result in series [1] is listed as “Tyr1-D-Ala2, first_seen”.
Consider [(R)-β^2hAla^2]-TAPP, for which, in series [1], the cleaved bond entry is listed as “Tyr1-(R)-β^2hAla2, first_seen”.
Take [(S)-β^2hAla^2]-TAPP: in series [1], the cleaved bond result is recorded as “Tyr1-(S)-β^2hAla2, first_seen”.
For the compound `C[C@@H](NC(=O)[C@H](CN)Cc1cccc(O)c1)C(=O)N[C@@H](Cc1ccccc1)C(=O)N[C@@H](Cc1ccccc1)C(N)=O` [compound 14, [(S)-β^2h-m-Tyr^1]-TAPP*], the IC50 at μ-opioid receptor (μOR) (setting [3]) amounted to 11.2 ± 6.3 nM. For the same compound, the “δOR affinity in words” value on δ-opioid receptor (δOR) is “did not exhibit any measurable binding”. Moreover, the IC50 at δ-opioid receptor (δOR) (setting [4]) is more than 10000 nM. Also, in series [2], the “site of the first proteolytic cleavage” value is “C-terminal amide (deamidation)” and the “stability in human plasma in words” value was “stability similar to TAPPs”.
On to H-Y[dA]FF-NH2, for which, in series [1], the cleaved bond result is given as “Phe4-NH2, first_seen”.
With `C[C@@H](NC(=O)[C@@H](CN)Cc1ccc(O)cc1)C(=O)N[C@@H](Cc1ccccc1)C(=O)N[C@@H](Cc1ccccc1)C(N)=O` [compound 8, [(R)-β^2hTyr^1]-TAPP*], at μ-opioid receptor (μOR) (setting [3]), the IC50 came to 77.6 ± 2.4 nM. Besides, the “decrease in μOR affinity compared to the parent TAPP” value on μ-opioid receptor (μOR) is recorded as “about 15 fold”. Moreover, the “δOR affinity in words” value at δ-opioid receptor (δOR) was “did not exhibit any measurable binding”. At δ-opioid receptor (δOR) (setting [4]), the half-inhibitory concentration (IC50) was more than 10000 nM. In series [2], the “site of the first proteolytic cleavage” value was “C-terminal amide (deamidation)” and the “stability in human plasma in words” value is on record as “stability similar to TAPPs”.
As to [(S)-β^2hTyr^1]-TAPP *, the cleaved bond entry in series [1] is “Phe4-NH2, first_seen”.
Turning to `C[C@@H](NC(=O)[C@@H](N)Cc1ccc(O)cc1)C(=O)N[C@@H](Cc1ccccc1)C(=O)N[C@@H](Cc1ccccc1)C(N)=O` [compound 1, H-Tyr-D-Ala-Phe-Phe-NH2, reference compound] (HELM PEPTIDE1{Y.[dA].F.F.[am]}$$$$V2.0), at δ-opioid receptor (δOR), the IC50 was determined as 616 nM and the “δOR affinity in words” value is “low binding”. The remaining at 96 h, 350 µM in series [2] (37 °C) is more than 90%. In series [2], the “site of the first proteolytic cleavage” value is “C-terminal amide (deamidation)” and the “stability in human plasma in words” value was “resistant to proteolysis”.
On to [(S)-β^2hPhe^3]-TAPP, for which the cleaved bond result in series [1] was “Tyr1-D-Ala2, first_seen”.
The same measure, in the same setting: the value for [(R)-β^2hTyr^1]-TAPP* was “Phe4-NH2, first_seen”.
`C[C@@H](NC(=O)[C@@H](N)Cc1ccc(O)cc1)C(=O)NC[C@H](Cc1ccccc1)C(=O)N[C@@H](Cc1ccccc1)C(N)=O` [compound 16, [(S)-β^2hPhe^3]-TAPP] gave an IC50 at μ-opioid receptor (μOR) of 15.5 ± 2.5 nM. Besides, at δ-opioid receptor (δOR), the IC50 was 890 nM and the “δOR affinity in words” value is given as “at a level similar to the parent TAPP”. Also, the remaining at 96 h, 350 µM in series [2] (37 °C) was more than 65%.
As for `NC(=O)[C@H](Cc1ccccc1)NC(=O)[C@H](Cc1ccccc1)NC(=O)[C@@H]1CCCN1C(=O)[C@@H](N)Cc1ccc(O)cc1` [endomorphin-2, Tyr-Pro-Phe-Phe-NH2, reference compound], the half-life at […] in series [2] (same conditions, control sample) was 0.5 h.
For `C[C@@H](NC(=O)[C@@H](N)Cc1ccc(O)cc1)C(=O)N[C@@H](Cc1ccccc1)C(=O)NC[C@@H](Cc1ccccc1)C(N)=O` [compound 12, [(R)-β^2hPhe^4]-TAPP], the values for the IC50 at μ-opioid receptor (μOR) and on δ-opioid receptor (δOR) were 1.9 ± 2.4 nM and 708 nM, respectively. On δ-opioid receptor (δOR), the “δOR affinity in words” value was “at a level similar to the parent TAPP”. Further, the remaining at 96 h, 350 µM in series [2] (37 °C) turned out to be 55%.
As to [(S)-β^2h-m-Tyr^1]-TAPP*, in series [1], the cleaved bond result was “Phe4-NH2, first_seen”.
As for `C[C@@H](NC(=O)[C@H](CN)Cc1ccc(O)cc1)C(=O)N[C@@H](Cc1ccccc1)C(=O)N[C@@H](Cc1ccccc1)C(N)=O` [compound 13, [(S)-β^2hTyr^1]-TAPP*], the IC50 at μ-opioid receptor (μOR) (setting [3]) is 339 ± 5.1 nM. In addition, at δ-opioid receptor (δOR), the “δOR affinity in words” value is reported as “did not exhibit any measurable binding”. Besides, the IC50 at δ-opioid receptor (δOR) (setting [4]) was more than 10000 nM. Moreover, in series [2], the “site of the first proteolytic cleavage” value is reported as “C-terminal amide (deamidation)” and the “stability in human plasma in words” value is listed as “stability similar to TAPPs”.
Regarding [(S)-β^2hPhe^4]-TAPP, the cleaved bond entry in series [1] was “Tyr1-D-Ala2, first_seen”.
For `C[C@@H](NC(=O)[C@@H](N)Cc1ccc(O)cc1)C(=O)N[C@@H](Cc1ccccc1)C(=O)NC[C@H](Cc1ccccc1)C(N)=O` [compound 17, [(S)-β^2hPhe^4]-TAPP], the IC50 on μ-opioid receptor (μOR) stood at 7.8 ± 4 nM. Further, on δ-opioid receptor (δOR), the IC50 turned out to be 417 nM and the “δOR affinity in words” value was “slight improvement in δOR affinity when compared to the parent peptide”. Besides, the remaining at 96 h, 350 µM in series [2] (37 °C) is approximately 90%. Besides, the “stability in human plasma in words” value in series [2] is “equally resistant to proteolysis as the parent”.
On to `C[C@@H](NC(=O)[C@@H](CN)Cc1cccc(O)c1)C(=O)N[C@@H](Cc1ccccc1)C(=O)N[C@@H](Cc1ccccc1)C(N)=O` [compound 9, [(R)-β^2h-m-Tyr^1]-TAPP*], for which the IC50 on μ-opioid receptor (μOR) (setting [3]) is 48.9 ± 2.3 nM. In addition, the “δOR affinity in words” value at δ-opioid receptor (δOR) is given as “did not exhibit any measurable binding”. Also, the IC50 at δ-opioid receptor (δOR) (setting [4]) is more than 10000 nM. For the same compound, in series [2], the “site of the first proteolytic cleavage” value is recorded as “C-terminal amide (deamidation)” and the “stability in human plasma in words” value is “stability similar to TAPPs”.
For [(R)-β^2hPhe^3]-TAPP, the cleaved bond entry in series [1] was “Tyr1-D-Ala2, first_seen”.
`C[C@@H](CNC(=O)[C@@H](N)Cc1ccc(O)cc1)C(=O)N[C@@H](Cc1ccccc1)C(=O)N[C@@H](Cc1ccccc1)C(N)=O` [compound 10, [(S)-β^2hAla^2]-TAPP]: the half-life in series [2] (37 °C) is approximately 4.5 h.
On to `C[C@H](CNC(=O)[C@@H](N)Cc1ccc(O)cc1)C(=O)N[C@@H](Cc1ccccc1)C(=O)N[C@@H](Cc1ccccc1)C(N)=O` [compound 15, [(R)-β^2hAla^2]-TAPP], for which the half-life in series [2] (37 °C) is approximately 4.5 h.
